Results: PubChem BioAssay AID2060508 (Molecular Pharmacology Branch, DTP, NCI, 2025)

Test system: 454973-116-R2-J3-PDC spheroids, viability, % test/control
Assay: Anticancer human tumor 454973-116-R2-J3-PDC patient-derived pancreatic carcinoma cell line growth inhibition [GQUAD]
Details: spheroids with HUVEC and MSC; for IC50: curve of first compound; for viability, T/C: stronger effect = lower value
Method in brief: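 Viability of tumor cells grown as complex spheroids with endothelial and stromal cells, exposed to drug combinations. Top concentration at or near clinical Cmax (else 10 microM), diluted in half-log increments.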
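Also: spheroids exposed to compounds for seven days.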
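For viability, T/C in this document: 100% = DMSO vehicle control viability.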

With `COc1cccc2c1C(=O)c1c(O)c3c(c(O)c1C2=O)CC(O)(C(=O)CO)CC3OC1CC(N)C(O)C(C)O1` (configuration not stated) + Cc1[nH]c2ccc(F)cc2c1-c1nc2c3cccnc3c3ncccc3c2[nH]1 the IC50 (second compound 0.0316 µM) was 166 nM, the IC50 (second compound 0.1 µM) was 188 nM and the IC50 (second compound 0.316 µM) was 154 nM. The IC50 (second compound 1 µM) was 143 nM, the IC50 (second compound 3.16 µM) was 145 nM and the IC50 (second compound 10 µM) was 158 nM. The viability, T/C (second compound 0.0316 µM, first compound 0.0316 µM) was 106%, the viability, T/C (second compound 0.0316 µM, first compound 0.1 µM) was 63.1% and the viability, T/C (second compound 0.0316 µM, first compound 0.316 µM) was 30.4%. For the same compound, the viability, T/C (second compound 0.0316 µM, first compound 1 µM) was 22.6%, the viability, T/C (second compound 0.0316 µM, first compound 3.16 µM) was 11.4% and the viability, T/C (second compound 0.0316 µM, first compound 10 µM) was 0.63%. It also gave a viability, T/C (second compound 0.1 µM, first compound 0.0316 µM) of 97.8%, a viability, T/C (second compound 0.1 µM, first compound 0.1 µM) of 69.8% and a viability, T/C (second compound 0.1 µM, first compound 0.316 µM) of 27.2%. The viability, T/C (second compound 0.1 µM, first compound 1 µM) was 28.9%, the viability, T/C (second compound 0.1 µM, first compound 3.16 µM) was 11% and the viability, T/C (second compound 0.1 µM, first compound 10 µM) was 0.58%. For the same compound, the viability, T/C (second compound 0.316 µM, first compound 0.0316 µM) was 96.5%, the viability, T/C (second compound 0.316 µM, first compound 0.1 µM) was 59.7% and the viability, T/C (second compound 0.316 µM, first compound 0.316 µM) was 27.6%. It also gave a viability, T/C (second compound 0.316 µM, first compound 1 µM) of 28.2%, a viability, T/C (second compound 0.316 µM, first compound 3.16 µM) of 11.8% and a viability, T/C (second compound 0.316 µM, first compound 10 µM) of 0.44%. The viability, T/C (second compound 1 µM, first compound 0.0316 µM) was 90.6%, the viability, T/C (second compound 1 µM, first compound 0.1 µM) was 61.4% and the viability, T/C (second compound 1 µM, first compound 0.316 µM) was 24.3%. For the same compound, the viability, T/C (second compound 1 µM, first compound 1 µM) was 26.2%, the viability, T/C (second compound 1 µM, first compound 3.16 µM) was 11.1% and the viability, T/C (second compound 1 µM, first compound 10 µM) was 0.62%. For the same compound, the viability, T/C (second compound 3.16 µM, first compound 0.0316 µM) was 93.1%, the viability, T/C (second compound 3.16 µM, first compound 0.1 µM) was 59.6% and the viability, T/C (second compound 3.16 µM, first compound 0.316 µM) was 27.6%. It also gave a viability, T/C (second compound 3.16 µM, first compound 1 µM) of 24.4%, a viability, T/C (second compound 3.16 µM, first compound 3.16 µM) of 14.8% and a viability, T/C (second compound 3.16 µM, first compound 10 µM) of 0.52%. For the same compound, the viability, T/C (second compound 10 µM, first compound 0.0316 µM) was 81.9%, the viability, T/C (second compound 10 µM, first compound 0.1 µM) was 64.7% and the viability, T/C (second compound 10 µM, first compound 0.316 µM) was 27%. It also gave a viability, T/C (second compound 10 µM, first compound 1 µM) of 27.1%, a viability, T/C (second compound 10 µM, first compound 3.16 µM) of 11.5% and a viability, T/C (second compound 10 µM, first compound 10 µM) of 0.75%.
